System: 855422-203-R-J1-PDC spheroids with HUVEC/MSC, viability
Assay: Anticancer human tumor 855422-203-R-J1-PDC patient-derived bladder carcinoma cell line growth inhibition [PI3K]
Conditions: for IC50: curve of first compound; for viability, T/C: stronger effect = lower value
Outline: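 Spheroid viability read-out. Co-cultures contained the tumor line plus HUVEC and human MSCs. Each agent was paired with a PI3K inhibitor (inavolisib, alpelisib, duvelisib, copanlisib) across half-log dilutions starting at clinical Cmax, or at 10 microM when Cmax was unknown.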

[1] = second compound 0.00316 µM, first compound 0.0316 µM
[2] = second compound 0.00316 µM, first compound 0.1 µM
[3] = second compound 0.00316 µM, first compound 0.316 µM
[4] = second compound 0.00316 µM, first compound 1 µM
[5] = second compound 0.00316 µM, first compound 3.16 µM
[6] = second compound 0.00316 µM, first compound 10 µM
[7] = second compound 0.01 µM, first compound 0.0316 µM
[8] = second compound 0.01 µM, first compound 0.1 µM
[9] = second compound 0.01 µM, first compound 0.316 µM
[10] = second compound 0.01 µM, first compound 1 µM
[11] = second compound 0.01 µM, first compound 3.16 µM
[12] = second compound 0.01 µM, first compound 10 µM
[13] = second compound 0.0316 µM, first compound 0.0316 µM
[14] = second compound 0.0316 µM, first compound 0.1 µM
[15] = second compound 0.0316 µM, first compound 0.316 µM
[16] = second compound 0.0316 µM, first compound 1 µM
[17] = second compound 0.0316 µM, first compound 3.16 µM
[18] = second compound 0.0316 µM, first compound 10 µM
[19] = second compound 0.1 µM, first compound 0.0316 µM
[20] = second compound 0.1 µM, first compound 0.1 µM
[21] = second compound 0.1 µM, first compound 0.316 µM
[22] = second compound 0.1 µM, first compound 1 µM
[23] = second compound 0.1 µM, first compound 3.16 µM
[24] = second compound 0.1 µM, first compound 10 µM
[25] = second compound 0.316 µM, first compound 0.0316 µM
[26] = second compound 0.316 µM, first compound 0.1 µM
[27] = second compound 0.316 µM, first compound 0.316 µM
[28] = second compound 0.316 µM, first compound 1 µM
[29] = second compound 0.316 µM, first compound 3.16 µM
[30] = second compound 0.316 µM, first compound 10 µM
[31] = second compound 1 µM, first compound 0.0316 µM
[32] = second compound 1 µM, first compound 0.1 µM
[33] = second compound 1 µM, first compound 0.316 µM
[34] = second compound 1 µM, first compound 1 µM
[35] = second compound 1 µM, first compound 3.16 µM
[36] = second compound 1 µM, first compound 10 µM
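Note: agents incubated with spheroids for one week before read-out.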
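Throughout, for viability, T/C: 100% = DMSO vehicle-treated control wells.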

`C#Cc1c(F)ccc2cc(O)cc(-c3ncc4c(N5CC6CCC(C5)N6)nc(OCC56CCCN5CC(F)C6)nc4c3F)c12` (stereo unspecified) + CC(Nc1ccc2c(c1)OCCn1cc(N3C(=O)OCC3C(F)F)nc1-2)C(N)=O gave an IC50 (second compound 0.00316 µM) greater than 10 µM, an IC50 (second compound 0.01 µM) greater than 10 µM and an IC50 (second compound 0.0316 µM) greater than 10 µM. It also gave an IC50 (second compound 0.1 µM) greater than 10 µM, an IC50 (second compound 0.316 µM) of 3.61 µM and an IC50 (second compound 1 µM) of less than 0.0316 µM. For the same compound, the viability, T/C [1] was 94.4%, the viability, T/C [2] was 85.1% and the viability, T/C [3] was 109%. The viability, T/C [4] was 89.2%, the viability, T/C [5] was 107% and the viability, T/C [6] was 110%. The viability, T/C [7] was 106%, the viability, T/C [8] was 93% and the viability, T/C [9] was 96.6%. For the same compound, the viability, T/C [10] was 98.2%, the viability, T/C [11] was 110% and the viability, T/C [12] was 116%. It also gave a viability, T/C [13] of 82.4%, a viability, T/C [14] of 87.8% and a viability, T/C [15] of 89.9%. The viability, T/C [16] was 92.4%, the viability, T/C [17] was 105% and the viability, T/C [18] was 92.9%. For the same compound, the viability, T/C [19] was 71.7%, the viability, T/C [20] was 69.8% and the viability, T/C [21] was 58.7%. The viability, T/C [22] was 82.8%, the viability, T/C [23] was 77.8% and the viability, T/C [24] was 73.6%. It also gave a viability, T/C [25] of 55.5%, a viability, T/C [26] of 55.3% and a viability, T/C [27] of 44.7%. It also gave a viability, T/C [28] of 54.6%, a viability, T/C [29] of 53.9% and a viability, T/C [30] of 29.1%. For the same compound, the viability, T/C [31] was 38.7%, the viability, T/C [32] was 31.5% and the viability, T/C [33] was 35.1%. It also gave a viability, T/C [34] of 32.8%, a viability, T/C [35] of 29.4% and a viability, T/C [36] of 17.6%.

Compound `C=CC(=O)N1CCN(c2nc(=O)n(-c3c(C)ccnc3C(C)C)c3nc(-c4c(O)cccc4F)c(F)cc23)C(C)C1` (stereo unspecified) + CC(Nc1ccc2c(c1)OCCn1cc(N3C(=O)OCC3C(F)F)nc1-2)C(N)=O has an IC50 (second compound 0.00316 µM) greater than 10 µM, an IC50 (second compound 0.01 µM) greater than 10 µM and an IC50 (second compound 0.0316 µM) greater than 10 µM. For the same compound, the IC50 (second compound 0.1 µM) was greater than 10 µM, the IC50 (second compound 0.316 µM) was greater than 10 µM and the IC50 (second compound 1 µM) was less than 0.0316 µM. The viability, T/C [1] was 80.4%, the viability, T/C [2] was 95.2% and the viability, T/C [3] was 116%. The viability, T/C [4] was 101%, the viability, T/C [5] was 122% and the viability, T/C [6] was 121%. For the same compound, the viability, T/C [7] was 96.1%, the viability, T/C [8] was 98.5% and the viability, T/C [9] was 121%. The viability, T/C [10] was 99.5%, the viability, T/C [11] was 119% and the viability, T/C [12] was 120%. The viability, T/C [13] was 91.5%, the viability, T/C [14] was 81.1% and the viability, T/C [15] was 96.7%. The viability, T/C [16] was 90.6%, the viability, T/C [17] was 99.6% and the viability, T/C [18] was 99.5%. The viability, T/C [19] was 80.2%, the viability, T/C [20] was 66.1% and the viability, T/C [21] was 75.5%. It also gave a viability, T/C [22] of 89%, a viability, T/C [23] of 80.8% and a viability, T/C [24] of 93.4%. For the same compound, the viability, T/C [25] was 54.5%, the viability, T/C [26] was 54.4% and the viability, T/C [27] was 53.8%. For the same compound, the viability, T/C [28] was 75%, the viability, T/C [29] was 73.9% and the viability, T/C [30] was 68.8%. It also gave a viability, T/C [31] of 39%, a viability, T/C [32] of 30.9% and a viability, T/C [33] of 39.2%. For the same compound, the viability, T/C [34] was 44%, the viability, T/C [35] was 50.6% and the viability, T/C [36] was 38.7%.

`CC(Cn1ccc(-c2ccc(C#N)c(Cl)c2)n1)NC(=O)c1cc(C(C)O)[nH]n1` (stereo unspecified) + CC(Nc1ccc2c(c1)OCCn1cc(N3C(=O)OCC3C(F)F)nc1-2)C(N)=O gave an IC50 (second compound 0.00316 µM) greater than 10 µM, an IC50 (second compound 0.01 µM) greater than 10 µM and an IC50 (second compound 0.0316 µM) greater than 10 µM. For the same compound, the IC50 (second compound 0.1 µM) was greater than 10 µM, the IC50 (second compound 0.316 µM) was 1.67 µM and the IC50 (second compound 1 µM) was less than 0.0316 µM. It also gave a viability, T/C [1] of 106%, a viability, T/C [2] of 88% and a viability, T/C [3] of 115%. It also gave a viability, T/C [4] of 86.7%, a viability, T/C [5] of 99% and a viability, T/C [6] of 86%. The viability, T/C [7] was 105%, the viability, T/C [8] was 82.4% and the viability, T/C [9] was 107%. For the same compound, the viability, T/C [10] was 99.9%, the viability, T/C [11] was 88.4% and the viability, T/C [12] was 79.6%. The viability, T/C [13] was 83.3%, the viability, T/C [14] was 83.7% and the viability, T/C [15] was 82%. For the same compound, the viability, T/C [16] was 85%, the viability, T/C [17] was 97.8% and the viability, T/C [18] was 70.3%. The viability, T/C [19] was 67.1%, the viability, T/C [20] was 71.9% and the viability, T/C [21] was 75.6%. For the same compound, the viability, T/C [22] was 71.8%, the viability, T/C [23] was 66.4% and the viability, T/C [24] was 63.4%. For the same compound, the viability, T/C [25] was 53.4%, the viability, T/C [26] was 51.3% and the viability, T/C [27] was 59.7%. The viability, T/C [28] was 49.6%, the viability, T/C [29] was 46.1% and the viability, T/C [30] was 44.7%. The viability, T/C [31] was 35.6%, the viability, T/C [32] was 40.9% and the viability, T/C [33] was 36.1%. For the same compound, the viability, T/C [34] was 36.2%, the viability, T/C [35] was 33.6% and the viability, T/C [36] was 28.9%.

From PubChem BioAssay AID1963967 (Molecular Pharmacology Branch, DTP, NCI, 2024)
